Literature values, collected in US20060106070A1, “Novel pyridine-based metal chelators as antiviral agents” (Bioflexis, LLC, priority 2004, published 2006).

How the values were obtained:
HIV-1 integrase [1] = biological target: T1, HIV-1 integrase (Human immunodeficiency virus type 1 group M subtype B, UniProt P12497); conditions: result in words
T1 construct: HIV-1 recombinant IN (HIV-1NL 4-3 Integrase); purchased NIH AIDS Reagent program 2959

HIV-1 integrase [2] = biological target: T1, HIV-1 integrase; conditions: result in words; remark: listed apart in the source

Row | SMILES | inhibition of strand transfer reaction (HIV-1 integrase [1]) | inhibition of 3′ processing (HIV-1 integrase [2])
1 | O=C(O)C(=O)CC(=O)c1cc(OCc2ccccc2)cc(OCc2ccccc2)c1 [L-708, 906] | inhibit strand transfer reaction | do not inhibit 3′ processing
2 | O=C(O)C(=O)CC(=O)c1cccn1Cc1ccc(F)cc1 [L-731,988] | inhibit strand transfer reaction | do not inhibit 3′ processing
